Data from patent publication US6930222B2, “In vivo animal model of human leukemia” (The Scripps Research Institute, priority 2000, dated 2005).

Tested on: primary T-ALL obtained from patients
Assay: in vitro leukemia colony assay (methylcellulose, IL-2 and PMA)
Type: cell-based, human
Conditions: 10 ng/ml
From the text: To characterize the nature of the enhancing activity on leukemia engraftment, colony formation of leukemia clonogenic cells was examined in vitro in the presence of cord blood or cord blood derived mesenchymal stem cell conditioned medium. The in vitro leukemia colony assay is based on the ability of leukemic clonogenic cells to proliferate and form colonies in response to growth factors such as IL-2. These leukemic “progenitor” cells have been implicated in the maintenance and expansion of leukemic blast populations.
On microscopic analysis, there is a wide range of colony sizes in the samples to which conditioned medium was added. The colonies in the cultures were individually picked, pooled for similar sizes of colonies, and the number of leukemia cells counted.
Using this primary leukemia sample, leukemia colony forming assay with the addition of cord blood conditioned medium was performed. […] On day 14, leukemia colonies were individually picked. Approximately 1.4×10^6 cells were recovered, and these cells were pooled for flow cytometric analysis. The vast majority of cells are uniquely CD45^−CD7^+, CD45^−CD34^+, and CD7^+CD34^+. Collectively, the results are consistent with approximately 90% of the harvested cells from in vitro cultures having the surface phenotype CD45^−CD7^+CD34^+, identical to the atypical phenotype of the primary leukemia of this patient. […]

recombinant IL-15: potent immunoregulatory cytokine, also a T-cell growth factor
stimulation of colony formation of primary leukemia: about 80%
